{"source": "patent US5098933A", "about": "“Pharmaceutically useful Michael addition products of unsaturated aldehydes and ketones and ascorbic acid” (Theracel Corporation, priority 1990, dated 1992)", "key": {"[1]": {"assay": "Pharmacokinetics of 3H-KCPBL in mice, plasma levels", "assay_type": "in vivo", "conditions": "intravenous, mouse, through 6 hours", "experimental": "(§1) The objectives of these tests were to evaluate the pharmacokinetics of radiolabeled KCPBL when administered either perorally or intravenously to mice.\n(§2) 3H-KCPBL was prepared from the pure drug substance KCPBL by an exchange procedure using high specific activity tritiated water. The product was purified by reverse phase high performance liquid chromatography and then freeze-dried. Analysis was carried out on ^3 H-KCPBL reconstituted in water. Specific activity was not less than 185 GBg/mmol or 5 Ci/mmol and the molecular weight of the product is 258. HPLC analysis for purity was performed using a Zorbax C8 column (25 cm×4.6) eluting with water: acetonitrile (930:70).\n(§3) In the mouse studies, 3H-KCPBL was dissolved in sterile pyrogen-free saline containing […] of non-radiolabeled KCPBL. The final concentration of the test article in an injection volume of 0.1 ml was 66.6 mcCi. One tenth ml was administered intravenously for plasma level and tissue biodistribution studies. Peroral dosages were prepared in a manner consistent with this approach.\nMice were given intravenous doses of 3H-KCPBL to evaluate its biodistribution in this laboratory animal model."}, "interleukin-2": {"test_system": "interleukin-2", "assay": "Immunomodulation panel: In vitro production of interleukin-2 (CTLL2 bioassay)", "assay_type": "in vivo, C57BL/6J mice", "description": "The bioassay uses the IL-2 growth-dependent cell line, CTLL2 as the indicator cell line to quantitate IL-2 in a biological fluid. The assay utilizes tritiated thymidine uptake by these cells as a measure of cellular proliferation. A reference standard obtained from the NCI Biological Response Modifiers Program is employed to construct a standard curve and to calculate Half Maximal Units (HMU) activity per ml. The assay was modified from one reported by Gillis et al. (J. Immunol. 120: 2927, 1978) and was recently reviewed as a clinical bioassay (Shalaby and Pallidino, In: Manual of Clinical Laboratory Immunology, 3rd Ed., p 300, American Society for Microbiology, Washington, D.C.).\n2. Each sample is assayed in triplicate, over dilutions of 1/2, 1/4, 1/8, and 1/16 in a 96 well flat bottom plate. A totoal of eight (8) samples may be assayed in a single 96 well plate.\nAnalysis: Values are obtained from counter as counts per minute (cpm). The average of each triplicate sample dilution count is calculated. A standard curve of known half maximal units of the IL-2 standard dilution/cpm is constructed using a PC program for generation of the least squares line of best fit. IL-2 values are thus assessed for each sample based upon the standard curve and reported.\n(§4) Daily intraperitoneal injections of KCPBL were administered to normal animals and immunological responsiveness to mitogens and specific antigen evaluated.\n(§5) Doses and schedule--Doses were selected to bracket the range generally known to be immunostimulatory in past experiments, 1, 10, and […] daily for four days.\n(§6) As an assessment of immunopathology in the above screening test panel, the cellularity of the spleen was evaluated by determination of the total number of splenocytes harvested. Humoral-mediated immunity was measured by enumerating IgM plaque-forming cells to the T-dependent antigen sheep erythrocytes. Cell-mediated immunity was evaluated as described above by determination of the ability of the splenocytes to produce the lymphokine interleukin-2 in response to stimulation by the mitogen concanavalin-A. Another measurement of cell-mediated immunity was the responsiveness of the splenic lymphocytes to the mitogens concanavalin-A (Con-A); phytohemagglutinin (PHA) and pokeweed mitogen (PWM) in the lymphocyte blastogenesis assay. In the latter test, the activation and proliferation of the lymphocytes to the mitogens represents the capability of the cells to sequentially pass from G0 to G1 and the S phse of the cell cycle. The responsiveness of the cells was measured by the uptake of radiolabeled 14C-thymidine."}, "splenic lymphocytes": {"test_system": "splenic lymphocytes", "assay": "Immunomodulation panel: lymphocyte blastogenesis (Con-A, PHA, PWM)", "assay_type": "in vivo, C57BL/6J mice", "experimental": "as §4, §5, §6"}, "[2]": {"assay": "Tissue biodistribution of 3H-KCPBL in mice", "assay_type": "in vivo", "conditions": "for Biodistribution, Bone / Biodistribution, Brain / Biodistribution, Heart / Biodistribution, Kidney / Biodistribution, Large Intestine / Biodistribution, Liver / Biodistribution, Lung / Biodistribution, Muscle / Biodistribution, Small Intestine / Biodistribution, Spleen / Biodistribution, Stomach: 100 mg/kg", "experimental": "as §1, §2, §3\nTissue samples were collected and assayed as described above. The tissues evaluated for KCPBL content at four and at 24 hours after test article administration were: heart, lung, kidney, liver spleen, muscle, bond, stomach, small intestine, large intestine and brain."}}}
{"smiles": "O=C1CCC(C2(O)C(=O)OC3C(O)COC32O)C1", "note": "(centres unmarked) [KCPBL]", "values": [{"measurement": "serum level profile", "setting": "[1]", "value": "immediate peak serum drug level followed by a steep decline"}, {"measurement": "IL-2 Half Maximal Units", "setting": "interleukin-2; 1.0 mg/kg i.p.", "value": "4.48 ± 1.5 Half Maximal Units [10^6 Cells"}, {"measurement": "IL-2 Half Maximal Units", "setting": "interleukin-2; 10 mg/kg i.p.", "value": "4.33 ± 1.4 Half Maximal Units [10^6 Cells"}, {"measurement": "IL-2 Half Maximal Units", "setting": "interleukin-2; 100 mg/kg i.p.", "value": "4.14 ± 1.3 Half Maximal Units [10^6 Cells"}, {"measurement": "IL-2 production vs controls", "setting": "interleukin-2; drug-treated animals", "value": "produced significantly more IL-2 than controls"}, {"measurement": "Lymphocyte Blastogenesis, PHA", "setting": "splenic lymphocytes; 1.0 mg/kg i.p.", "value": "5176 ± 1185", "unit": "Counts per minute"}, {"measurement": "Lymphocyte Blastogenesis, PWM", "setting": "splenic lymphocytes; 1.0 mg/kg i.p.", "value": "1977 ± 540", "unit": "Counts per minute"}, {"measurement": "Lymphocyte Blastogenesis, RPMI", "setting": "splenic lymphocytes; 1.0 mg/kg i.p.", "value": "95 ± 66", "unit": "Counts per minute"}, {"measurement": "Lymphocyte Blastogenesis, Con-A", "setting": "splenic lymphocytes; 10 mg/kg i.p.", "value": "10074 ± 1881", "unit": "Counts per minute"}, {"measurement": "Lymphocyte Blastogenesis, PHA", "setting": "splenic lymphocytes; 10 mg/kg i.p.", "value": "5590 ± 864", "unit": "Counts per minute"}, {"measurement": "Lymphocyte Blastogenesis, RPMI", "setting": "splenic lymphocytes; 10 mg/kg i.p.", "value": "95 ± 54", "unit": "Counts per minute"}, {"measurement": "reactivity of splenocytes to PHA", "setting": "splenic lymphocytes; drug-treated animals", "value": "reactivity to PHA was not affected"}, {"measurement": "responsiveness of splenocytes to Con-A", "setting": "splenic lymphocytes; drug-treated animals", "value": "slightly more responsive to Con-A"}, {"measurement": "responsiveness of splenocytes to PWM", "setting": "splenic lymphocytes; drug-treated animals", "value": "significant increases in the responsiveness"}, {"measurement": "tissues with highest drug levels", "setting": "[2]; 4 h, intravenous", "value": "liver, gastrointestinal tract, and brain"}, {"measurement": "tissues with highest drug levels", "setting": "[2]; 4 h, peroral", "value": "principally found in the kidneys and the gastrointestinal tract"}, {"measurement": "tissues with highest drug levels", "setting": "[2]; 24 h, intravenous", "value": "muscle and brain demonstrated the highest levels"}, {"measurement": "tissues with highest drug levels", "setting": "[2]; 24 h, peroral", "value": "the highest drug levels were found in muscle and brain"}, {"measurement": "Biodistribution, Bone", "setting": "[2]; intravenous, 4 hour", "value": "12.77 ± 3.96", "unit": "mcg/gm"}, {"measurement": "Biodistribution, Brain", "setting": "[2]; intravenous, 4 hour", "value": "38.60 ± 16.90", "unit": "mcg/gm"}, {"measurement": "Biodistribution, Heart", "setting": "[2]; intravenous, 4 hour", "value": "10.45 ± 3.50", "unit": "mcg/gm"}, {"measurement": "Biodistribution, Kidney", "setting": "[2]; intravenous, 4 hour", "value": "11.72 ± 1.34", "unit": "mcg/gm"}, {"measurement": "Biodistribution, Large Intestine", "setting": "[2]; intravenous, 4 hour", "value": "65.57 ± 14.86", "unit": "mcg/gm"}, {"measurement": "Biodistribution, Liver", "setting": "[2]; intravenous, 4 hour", "value": "21.20 ± 4.78", "unit": "mcg/gm"}, {"measurement": "Biodistribution, Lung", "setting": "[2]; intravenous, 4 hour", "value": "2.60 ± 2.20", "unit": "mcg/gm"}, {"measurement": "Biodistribution, Muscle", "setting": "[2]; intravenous, 4 hour", "value": "31.97 ± 6.09", "unit": "mcg/gm"}, {"measurement": "Biodistribution, Small Intestine", "setting": "[2]; intravenous, 4 hour", "value": "58.50 ± 18.68", "unit": "mcg/gm"}, {"measurement": "Biodistribution, Spleen", "setting": "[2]; intravenous, 4 hour", "value": "0.95 ± 0.36", "unit": "mcg/gm"}, {"measurement": "Biodistribution, Stomach", "setting": "[2]; intravenous, 4 hour", "value": "23.79 ± 5.96", "unit": "mcg/gm"}, {"measurement": "Biodistribution, Bone", "setting": "[2]; intravenous, 24 hour", "value": "4.53 ± 0.86", "unit": "mcg/gm"}, {"measurement": "Biodistribution, Brain", "setting": "[2]; intravenous, 24 hour", "value": "34.80 ± 20.5", "unit": "mcg/gm"}, {"measurement": "Biodistribution, Heart", "setting": "[2]; intravenous, 24 hour", "value": "2.85 ± 1.23", "unit": "mcg/gm"}, {"measurement": "Biodistribution, Kidney", "setting": "[2]; intravenous, 24 hour", "value": "5.35 ± 3.66", "unit": "mcg/gm"}, {"measurement": "Biodistribution, Large Intestine", "setting": "[2]; intravenous, 24 hour", "value": "13.67 ± 9.3", "unit": "mcg/gm"}, {"measurement": "Biodistribution, Lung", "setting": "[2]; intravenous, 24 hour", "value": "1.32 ± 0.46", "unit": "mcg/gm"}, {"measurement": "Biodistribution, Muscle", "setting": "[2]; intravenous, 24 hour", "value": "120.90 ± 154.0", "unit": "mcg/gm"}, {"measurement": "Biodistribution, Small Intestine", "setting": "[2]; intravenous, 24 hour", "value": "9.62 ± 6.4", "unit": "mcg/gm"}, {"measurement": "Biodistribution, Spleen", "setting": "[2]; intravenous, 24 hour", "value": "0.71 ± 0.23", "unit": "mcg/gm"}, {"measurement": "Biodistribution, Stomach", "setting": "[2]; intravenous, 24 hour", "value": "10.36 ± 5.8", "unit": "mcg/gm"}, {"measurement": "Biodistribution, Liver", "setting": "[2]; intravenous, 24 hour, SD: data not available", "value": 25.7, "unit": "mcg/gm"}, {"measurement": "Biodistribution, Bone", "setting": "[2]; peroral, 4 hour", "value": "15.02 ± 13.6", "unit": "mcg/gm"}, {"measurement": "Biodistribution, Brain", "setting": "[2]; peroral, 4 hour", "value": "35.22 ± 1.64", "unit": "mcg/gm"}, {"measurement": "Biodistribution, Heart", "setting": "[2]; peroral, 4 hour", "value": "13.64 ± 4.98", "unit": "mcg/gm"}, {"measurement": "Biodistribution, Kidney", "setting": "[2]; peroral, 4 hour", "value": "63.57 ± 74.0", "unit": "mcg/gm"}, {"measurement": "Biodistribution, Large Intestine", "setting": "[2]; peroral, 4 hour", "value": "135.9 ± 32.5", "unit": "mcg/gm"}, {"measurement": "Biodistribution, Liver", "setting": "[2]; peroral, 4 hour", "value": "38.03 ± 5.0", "unit": "mcg/gm"}, {"measurement": "Biodistribution, Lung", "setting": "[2]; peroral, 4 hour", "value": "2.72 ± 0.38", "unit": "mcg/gm"}, {"measurement": "Biodistribution, Muscle", "setting": "[2]; peroral, 4 hour", "value": "40.81 ± 3.37", "unit": "mcg/gm"}, {"measurement": "Biodistribution, Small Intestine", "setting": "[2]; peroral, 4 hour", "value": "217.50 ± 267.6", "unit": "mcg/gm"}, {"measurement": "Biodistribution, Spleen", "setting": "[2]; peroral, 4 hour", "value": "1.73 ± 0.29", "unit": "mcg/gm"}, {"measurement": "Biodistribution, Stomach", "setting": "[2]; peroral, 4 hour", "value": "110.00 ± 118.0", "unit": "mcg/gm"}, {"measurement": "Biodistribution, Bone", "setting": "[2]; peroral, 24 hour", "value": "10.30 ± 4.72", "unit": "mcg/gm"}, {"measurement": "Biodistribution, Brain", "setting": "[2]; peroral, 24 hour", "value": "47.30 ± 33.0", "unit": "mcg/gm"}, {"measurement": "Biodistribution, Heart", "setting": "[2]; peroral, 24 hour", "value": "5.13 ± 3.37", "unit": "mcg/gm"}, {"measurement": "Biodistribution, Kidney", "setting": "[2]; peroral, 24 hour", "value": "10.28 ± 5.58", "unit": "mcg/gm"}, {"measurement": "Biodistribution, Large Intestine", "setting": "[2]; peroral, 24 hour", "value": "21.42 ± 4.39", "unit": "mcg/gm"}, {"measurement": "Biodistribution, Liver", "setting": "[2]; peroral, 24 hour", "value": "11.84 ± 9.58", "unit": "mcg/gm"}, {"measurement": "Biodistribution, Lung", "setting": "[2]; peroral, 24 hour", "value": "3.73 ± 3.49", "unit": "mcg/gm"}, {"measurement": "Biodistribution, Muscle", "setting": "[2]; peroral, 24 hour", "value": "188.5 ± 124.0", "unit": "mcg/gm"}, {"measurement": "Biodistribution, Small Intestine", "setting": "[2]; peroral, 24 hour", "value": "24.45 ± 5.3", "unit": "mcg/gm"}, {"measurement": "Biodistribution, Spleen", "setting": "[2]; peroral, 24 hour", "value": "1.71 ± 0.16", "unit": "mcg/gm"}, {"measurement": "Biodistribution, Stomach", "setting": "[2]; peroral, 24 hour", "value": "25.72 ± 15.0", "unit": "mcg/gm"}]}
